Data as given in paper PMC3919268, “Three-dimensional structure of a Streptomyces sviceus GNAT acetyltransferase with similarity to the C-terminal domain of the human GH84 O-GlcNAcase” (Acta Crystallographica Section D: Biological Crystallography, 2013).
pKd: −log10 of the molar value.

Target: T1, SsAT (acetyltransferase, accession No. ZP_05014886) (Streptomyces sviceus, UniProt B5HKU0)
T1 construct: gene SSEG_00025; recombinant N-terminally His-tagged SsAT, freshly purified
Assay: ITC, pH […]°C, one-site model, n close to […]
Assay type: binding

T1 sequence (B5HKU0 entry or part of it): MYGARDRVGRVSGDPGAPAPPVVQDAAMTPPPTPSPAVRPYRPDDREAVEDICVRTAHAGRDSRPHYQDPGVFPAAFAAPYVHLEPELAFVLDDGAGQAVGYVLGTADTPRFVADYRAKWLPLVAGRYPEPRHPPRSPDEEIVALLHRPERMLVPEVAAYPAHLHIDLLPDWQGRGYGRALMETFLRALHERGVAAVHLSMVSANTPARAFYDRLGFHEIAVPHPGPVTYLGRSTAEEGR

pKd: 4.70
Compound: CC(=O)SCCNC(=O)CCNC(=O)[C@H](O)C(C)(C)COP(=O)(O)OP(=O)(O)OC[C@H]1O[C@@H](n2cnc3c(N)ncnc32)[C@H](O)[C@@H]1OP(=O)(O)O [acetyl coenzyme A]
